Results on one compound are retold here after paper PMC9102953, “New Derivatives of 5-Substituted Uracils: Potential Agents with a Wide Spectrum of Biological Activity” (Molecules, 2022).

By EC50 is commonly meant the midpoint of the concentration-response curve.

One data set relates to HCoV-OC43. The data set is described as follows: Antiviral cytopathicity assay, HCoV-OC43 in HEL 299 cells. The data set is classed as cell-based. To be noted: Betacoronavirus 1, OC43; HEL 299 cells; reduction of virus-induced cytopathicity by 50%; read-out: EC50 (μM) HCoV-OC43, HEL 299.
Data set [1] deals with respiratory syncytial virus (RSV) strain A Long. Nature of the data set: microbe, parasite or virus in culture. The format is cell-based. To be noted: human respiratory syncytial virus, HEL 299, read-out: EC50 (μM) RSV A Long, HEL 299.
For data set [2], the system named is yellow fever virus (YFV) strain 17 D. Nature of the data set: microbe, parasite or virus in culture. The data set is classed as cell-based. The following applies: Yellow fever virus, Huh-7, read-out: EC50 (μM) YFV 17D, Huh7.
In data set [3] the test system is varicella-zoster virus (VZV) strain TK−. The data set is described as follows: microbe, parasite or virus in culture. The format is cell-based. The following applies: Human alphaherpesvirus 3, HEL, read-out: EC50, formation of viral plaques, TK-varicella-zoster virus strain.
In data set [4] the test system is human cytomegalovirus (HCMV) strain AD-169. The data set is described as follows: microbe, parasite or virus in culture. The data set is classed as cell-based. The following applies: Human betaherpesvirus 5, AD169, HEL, read-out: EC50, formation of viral plaques, cytomegalovirus strain AD169.
For data set [5], the system named is human cytomegalovirus (HCMV) strain Davis. The data set is described as follows: microbe, parasite or virus in culture. The data set is classed as cell-based. To be noted: Human betaherpesvirus 5, HEL, read-out: EC50, formation of viral plaques, cytomegalovirus strain Davis.
The next data set relates to HEL cells. Nature of the data set: Change of cell morphology in HEL cells. The format is cell-based, human.
A further data set concerns a variety of RNA viruses. The format is cell-based.
Data set [6] deals with HEL299, Huh 7 and MDCK cells.
The next data set can be described thus: in vitro. To be noted: dog.

`CC(C)(C)c1ccc(Nc2cn(C3C=CC(O)C3)c(=O)n(C3C=CC(O)C3)c2=O)cc1` (racemic) [(±)-4e, (±)-1-(1-(4′-hydroxycyclopent-2′-ene-1′-yl))-3-(4‴-hydroxycyclopent-2‴-en-1‴-yl)-5-((4″-tert-butyl)phenylamino)uracil]: the concentration for a half-maximal effect (EC50) in the data set on HCoV-OC43 was greater than 100 µM; in [1] it was greater than 100 µM; in data set [2], greater than 100 µM; in [3] it was 48.9 µM; in data set [4], 76.5 µM; in data set [5] it was 40.9 µM. The “minimum concentration that leads to the detection of changes in cell morphology” value with HEL cells is recorded as “greater than 100 μM”. Also, the “antiviral activity in the screening (in words)” value in the data set on a variety of RNA viruses is “did not show any activity”. Moreover, the “cytotoxicity in the tested cell lines (in words)” value in data set [6] is “marked cytotoxicity”. In “in vitro”, this compound yielded a CC50 of 19.5 µM.
